# Experiments:
# Test in all cases: isothermal titration calorimetry
# Type in all cases: binding
# TmoX1062 [1] = target: T1, TmoX1062 (Candidatus Pelagibacter communis, UniProt Q4FL33)
# T1 construct: gene tmoX
# T1 sequence (Q4FL33 25-314): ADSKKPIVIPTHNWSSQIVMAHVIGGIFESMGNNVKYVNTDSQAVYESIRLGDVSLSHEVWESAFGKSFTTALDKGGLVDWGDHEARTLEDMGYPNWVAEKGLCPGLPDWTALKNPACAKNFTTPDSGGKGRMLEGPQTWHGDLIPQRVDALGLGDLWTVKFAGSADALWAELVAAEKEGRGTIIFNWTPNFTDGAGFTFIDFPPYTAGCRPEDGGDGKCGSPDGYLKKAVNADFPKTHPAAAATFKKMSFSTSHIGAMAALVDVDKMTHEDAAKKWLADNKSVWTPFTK
# Text: isothermal titration calorimetry on TmoX1062
# TmoX1062 [2] = target: T2, TmoX1062 (Candidatus Pelagibacter communis, UniProt Q4FL33, F210A); settings: 10 mM Tris-HCl pH 8.0, 100 mM NaCl
# T2 construct: gene tmoX
# T2 sequence (Q4FL33 25-314 F210A): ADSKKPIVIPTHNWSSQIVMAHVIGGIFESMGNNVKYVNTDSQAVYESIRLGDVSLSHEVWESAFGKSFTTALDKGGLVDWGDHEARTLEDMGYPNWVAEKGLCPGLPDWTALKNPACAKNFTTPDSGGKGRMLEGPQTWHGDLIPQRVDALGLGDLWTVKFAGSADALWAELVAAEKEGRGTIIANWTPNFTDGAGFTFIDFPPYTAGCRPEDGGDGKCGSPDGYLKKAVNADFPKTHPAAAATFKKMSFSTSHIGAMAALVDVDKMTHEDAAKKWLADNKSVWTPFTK
# TmoX1062 [3] = target: T3, TmoX1062 (Candidatus Pelagibacter communis, UniProt Q4FL33, W212A); settings: 10 mM Tris-HCl pH 8.0, 100 mM NaCl
# T3 construct: gene tmoX
# T3 sequence (Q4FL33 25-314 W212A): as the sequence (Q4FL33 25-314 F210A) above, with A186F, W188A counted along it
# TmoX1062 [4] = target: T4, TmoX1062 (Candidatus Pelagibacter communis, UniProt Q4FL33, W85A); settings: 10 mM Tris-HCl pH 8.0, 100 mM NaCl
# T4 construct: gene tmoX
# T4 sequence (Q4FL33 25-314 W85A): as the sequence (Q4FL33 25-314 F210A) above, with W61A, A186F counted along it
# TmoX1062 [5] = target: T5, TmoX1062 (Candidatus Pelagibacter communis, UniProt Q4FL33, F89A); settings: 10 mM Tris-HCl pH 8.0, 100 mM NaCl
# T5 construct: gene tmoX
# T5 sequence (Q4FL33 25-314 F89A): as the sequence (Q4FL33 25-314 F210A) above, with F65A, A186F counted along it
# TmoX1062 [6] = target: T6, TmoX1062 (Candidatus Pelagibacter communis, UniProt Q4FL33, E114A); settings: 10 mM Tris-HCl pH 8.0, 100 mM NaCl
# T6 construct: gene tmoX
# T6 sequence (Q4FL33 25-314 E114A): as the sequence (Q4FL33 25-314 F210A) above, with E90A, A186F counted along it
# TmoX1062 [7] = target: T7, TmoX1062 (Candidatus Pelagibacter communis, UniProt Q4FL33, W38A); settings: 10 mM Tris-HCl pH 8.0, 100 mM NaCl
# T7 construct: gene tmoX
# T7 sequence (Q4FL33 25-314 W38A): as the sequence (Q4FL33 25-314 F210A) above, with W14A, A186F counted along it
smiles,measurement,setting,value
C[N+](C)(C)CCO [Choline],Kd,TmoX1062 [1],2.5 ± 0.33 µM
C[N+](C)(C)[O-] [TMAO],binding affinity relative to WT (100%),TmoX1062 [2],mutants W38A and F210A still maintained a relatively high TMAO binding affinity
same,Kd,TmoX1062 [1],0.52 ± 0.12 µM
same,binding affinity relative to WT (100%),TmoX1062 [3],"Mutations of Trp85, Phe89 and Trp212 to alanine severely deceased the binding affinity of TmoX1062"
same,binding affinity relative to WT (100%),TmoX1062 [4],"Mutations of Trp85, Phe89 and Trp212 to alanine severely deceased the binding affinity of TmoX1062"
same,binding affinity relative to WT (100%),TmoX1062 [5],"Mutations of Trp85, Phe89 and Trp212 to alanine severely deceased the binding affinity of TmoX1062"
same,binding affinity relative to WT (100%),TmoX1062 [6],Mutation of Glu114 to alanine abolished the binding affinity of TmoX1062 toward TMAO
same,binding affinity relative to WT (100%),TmoX1062 [7],mutants W38A and F210A still maintained a relatively high TMAO binding affinity

# From paper PMC8918994, “Characterization of the Trimethylamine N-Oxide Transporter From Pelagibacter Strain HTCC1062 Reveals Its Oligotrophic Niche Adaption” (Frontiers in Microbiology, 2022)
